Test results taken from patent US20060205724A1, “Antagonizing nk-1 receptors inhibits consumption of substances of abuse” (The Regents of the University of California, priority 2002, published 2006).

Tests used:
rat = experiment: self-administration of ethanol by a rat (ethanol intake, water intake, ethanol preference); assay type: in vivo
Description: The graphs show ethanol intake, water intake, and ethanol preference.
FIG. 2 illustrates the effect of administration of the NK1 receptor antagonist LY303870 on self-administration of alcohol by a rat.
Without being bound to a particular theory, it is believed that this effect may be due to failure of WIN 51,708 to cross the blood-brain barrier.

rats = experiment: loss of righting reflex (measure of intoxication) in rats administered ethanol; assay type: in vivo, rat; settings: rats given 3 g/kg of ethanol; vs vehicle-treated animals
Description: FIG. 1 illustrates the effect of an NK1 receptor antagonist (LY303870) on the loss of righting reflex in rats administrated ethanol at 3 and 4 g/kg. *P<0.05 vs vehicle-treated animals. n=9-10 per group.

Structure (SMILES)	ethanol preference (ethanol as compared to water) (rat)	self-administration of ethanol (rat; 2.5 mg/kg or greater)	loss of righting reflex (time the test animals were "drunk") (rats)	ethanol consumption (rat)
COc1ccccc1CN(C[C@@H](Cc1c[nH]c2ccccc12)NC(=O)CN1CCC(N2CCCCC2)CC1)C(C)=O [LY303870]	reduced preference for ethanol as compared to water	significant reduction in self-administration of ethanol	reduced the time the test animals were “drunk”	
C#C[C@]1(O)CC[C@H]2[C@@H]3CC[C@H]4Cc5nc6nc7ccccc7n6cc5C[C@]4(C)[C@H]3CC[C@@]21C [WIN 51,708]	did not alter preference			did not have a significant effect
